Patent US20140342379A1, “Means and Methods for Assessing Gonadal Toxicity” (BASF SE, priority 2011, published 2014)
Marks after values point to notes of the source that are not given here.

Tested on: male rats
Assay: 28-day repeated dose study, plasma metabolite profiling (GC-MS, LC-MS), male rats
Assay type: in vivo, rat
From the text: Drinking water was also offered ad libitum.

Structure (SMILES): COCCO [2-Methoxyethanol]
- 3-Hydroxybutyrate, plasma, treatment ratio versus control (day 7): 0.45*
- 3-O-Methylsphingosine (d18:1), plasma, treatment ratio versus control (day 7): 0.53*
- 5-Oxoproline, plasma, treatment ratio versus control (day 7): 0.76*
- Campesterol, plasma, treatment ratio versus control (day 7): 0.58*
- Ceramide (d18:1,C24:0), plasma, treatment ratio versus control (day 7): 0.75*
- Ceramide (d18:1,C24:1), plasma, treatment ratio versus control (day 7): 0.82
- Cholesterol, plasma, treatment ratio versus control (day 7): 0.58*
- Coenzyme Q9, plasma, treatment ratio versus control (day 7): 0.57*
- Coenzyme Q10, plasma, treatment ratio versus control (day 7): 0.7*
- Dodecanol, plasma, treatment ratio versus control (day 7): 0.8
- Glutamine, plasma, treatment ratio versus control (day 7): 0.68*
- Histidine, plasma, treatment ratio versus control (day 7): 1.13
- Isopalmitic acid (C16:0), plasma, treatment ratio versus control (day 7): 1.03
- Lignoceric acid (C24:0), plasma, treatment ratio versus control (day 7): 0.61*
- Linoleic acid (C18:cis[9,12]2), plasma, treatment ratio versus control (day 7): 1.07
- Lysine, plasma, treatment ratio versus control (day 7): 1.22*
- Myristic acid (C14:0), plasma, treatment ratio versus control (day 7): 0.87
- Palmitic acid (C16:0), plasma, treatment ratio versus control (day 7): 0.92
- Palmitoleic acid (C16:cis[9]1), plasma, treatment ratio versus control (day 7): 0.71*
- Sphingomyelin (d18:1,C16:0), plasma, treatment ratio versus control (day 7): 0.84*
- Sphingomyelin (d18:1,C24:0), plasma, treatment ratio versus control (day 7): 0.68*
- Stearic acid (C18:0), plasma, treatment ratio versus control (day 7): 0.8*
- Threonine, plasma, treatment ratio versus control (day 7): 1.72*
- alpha-Tocopherol, plasma, treatment ratio versus control (day 7): 0.78
- erythro-Sphingosine, plasma, treatment ratio versus control (day 7): 0.57*
- 3-Hydroxybutyrate, plasma, treatment ratio versus control (day 14): 0.24*
- 3-O-Methylsphingosine (d18:1), plasma, treatment ratio versus control (day 14): 0.67*
- 5-Oxoproline, plasma, treatment ratio versus control (day 14): 0.67*
- Ceramide (d18:1,C24:0), plasma, treatment ratio versus control (day 14): 0.7*
- Ceramide (d18:1,C24:1), plasma, treatment ratio versus control (day 14): 0.62*
- Cholesterol, plasma, treatment ratio versus control (day 14): 0.61*
- Coenzyme Q9, plasma, treatment ratio versus control (day 14): 0.58*
- Coenzyme Q10, plasma, treatment ratio versus control (day 14): 0.49*
- Dodecanol, plasma, treatment ratio versus control (day 14): 0.77*
- Glutamine, plasma, treatment ratio versus control (day 14): 0.71
- Histidine, plasma, treatment ratio versus control (day 14): 1.4*
- Isopalmitic acid (C16:0), plasma, treatment ratio versus control (day 14): 0.43*
- Lignoceric acid (C24:0), plasma, treatment ratio versus control (day 14): 0.46*
- Linoleic acid (C18:cis[9,12]2), plasma, treatment ratio versus control (day 14): 0.77*
- Myristic acid (C14:0), plasma, treatment ratio versus control (day 14): 0.57*
- Palmitic acid (C16:0), plasma, treatment ratio versus control (day 14): 0.75*
- Palmitoleic acid (C16:cis[9]1), plasma, treatment ratio versus control (day 14): 0.39*
- Sphingomyelin (d18:1,C16:0), plasma, treatment ratio versus control (day 14): 0.88*
- Sphingomyelin (d18:1,C24:0), plasma, treatment ratio versus control (day 14): 0.56*
- Stearic acid (C18:0), plasma, treatment ratio versus control (day 14): 0.84*
- Threonine, plasma, treatment ratio versus control (day 14): 2.93*
- alpha-Tocopherol, plasma, treatment ratio versus control (day 14): 0.76*
- erythro-Sphingosine, plasma, treatment ratio versus control (day 14): 0.67*
